Assay results taken from patent US20240059691A1 (KALVISTA PHARMACEUTICALS LIMITED, priority 2020, published 2024).

Tests used:
Assay type in all cases: biochemical
KLK1 = KLK1 (Homo sapiens (Human), UniProt P06870); assay: Determination of related protease inhibition: KLK1 (fluorogenic substrate at Km); conditions: 25° C.
Protocol: (§1) Determination of Related Protease Inhibition
(§2) In vitro inhibition of related proteases was determined using an ([…] assay based on standard literature methods (see e.g. Shori et al., Biochem. Pharmacol., 1992, 43, 1209; Bouckaert et al., European Journal of Medicinal Chemistry 110 (2016) 181). Human serine protease enzymes Plasma Kallikrein, KLK1, FXa, Plasmin, Thrombin and Trypsin were assayed for enzymatic activity using an appropriate fluorogenic substrate at Km concentration, FXIa at fixed substrate concentration of 100 μM, and various concentrations of the test compound. Protease activity was measured by monitoring the accumulation of liberated fluorescence from the substrate over […]. The linear rate of fluorescence increase per minute was expressed as percentage (%) activity. IC50 values were calculated as the concentration of inhibitor giving 50% inhibition of the uninhibited enzyme activity (100%).

Human Factor XIIa = Human Factor XIIa (Homo sapiens (Human), UniProt P00748); assay: Determination of FXIIa inhibition (fluorogenic substrate H-DPro-Phe-Arg-AFC, IC50 assay); conditions: substrate H-DPro-Phe-Arg-AFC at Km, 25° C.; for IC50: class scale A-G
Outline: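 Human FXIIa incubated at 25° C with fluorogenic substrate H-DPro-Phe-Arg-AFC at its Km concentration and varying compound concentrations. Fluorescence release monitored over 5 min at 25° C; linear rate expressed as % of uninhibited activity to derive IC50.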

FXa = FXa (Homo sapiens (Human), UniProt P00742); assay: Determination of related protease inhibition: FXa (fluorogenic substrate at Km); conditions: 25° C.
Protocol: as §1, §2

KLK1, sequence (P06870 25-262): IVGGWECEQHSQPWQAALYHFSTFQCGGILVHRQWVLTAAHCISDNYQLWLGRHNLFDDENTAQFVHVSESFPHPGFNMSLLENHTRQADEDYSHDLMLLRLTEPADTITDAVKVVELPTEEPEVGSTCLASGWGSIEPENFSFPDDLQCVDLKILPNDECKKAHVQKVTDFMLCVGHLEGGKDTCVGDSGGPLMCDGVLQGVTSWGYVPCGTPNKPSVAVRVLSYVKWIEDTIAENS
Human Factor XIIa, sequence (P00748 373-615): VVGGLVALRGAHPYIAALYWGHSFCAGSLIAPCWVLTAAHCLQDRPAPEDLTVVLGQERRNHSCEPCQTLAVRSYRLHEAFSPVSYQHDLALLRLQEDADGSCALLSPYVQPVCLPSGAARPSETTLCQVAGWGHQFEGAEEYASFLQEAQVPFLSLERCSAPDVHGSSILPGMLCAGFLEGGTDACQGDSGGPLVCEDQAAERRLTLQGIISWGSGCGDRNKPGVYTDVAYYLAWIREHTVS
FXa, sequence (P00742 235-488): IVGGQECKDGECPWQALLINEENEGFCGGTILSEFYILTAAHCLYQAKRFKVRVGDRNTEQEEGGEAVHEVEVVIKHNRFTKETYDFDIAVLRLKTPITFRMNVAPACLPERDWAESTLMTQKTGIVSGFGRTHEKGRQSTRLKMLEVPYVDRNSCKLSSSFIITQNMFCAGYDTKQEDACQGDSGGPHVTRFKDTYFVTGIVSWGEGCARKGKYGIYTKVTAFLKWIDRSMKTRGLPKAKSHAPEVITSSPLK
FXa, sequence (P00742 41-179 partner): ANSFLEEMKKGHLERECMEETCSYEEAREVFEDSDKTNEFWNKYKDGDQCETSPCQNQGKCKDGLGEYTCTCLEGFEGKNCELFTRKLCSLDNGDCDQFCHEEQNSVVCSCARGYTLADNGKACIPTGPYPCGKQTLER

CC1CN(c2ccc(CNc3cccc4c(N)nccc34)cn2)Cc2nnc(C(F)(F)F)n21 (centres unmarked) [Example 1287, N5-((6-(5-methyl-3-(trifluoromethyl)-5,6-dihydro-[1,2,4]triazolo[4,3-a]pyrazin-7(8H)-yl)pyridin-3-yl)methyl)isoquinoline-1,5-diamine]
IC50 (KLK1): 1 to 3 µM
IC50 (Human Factor XIIa): 1 to 3 µM
IC50 (FXa): > 40 µM

Cc1nc(N2CCn3c(nnc3C(F)(F)F)C2)ccc1CNc1cccc2c(N)nccc12 [Example 1284, N5-((2-methyl-6-(3-(trifluoromethyl)-5,6-dihydro-[1,2,4]triazolo[4,3-a]pyrazin-7(8H)-yl)pyridin-3-yl)methyl)isoquinoline-1,5-diamine]
IC50 (KLK1): 3 to 10 µM
IC50 (Human Factor XIIa): 0.3 to 1 µM
IC50 (FXa): > 40 µM

Nc1nccc2c(N3CCCC3c3ccc(N4CCn5c(nnc5C(F)(F)F)C4)nc3)cccc12 (single isomer, unassigned) [Example 10003, (S*)-5-(2-(6-(3-(trifluoromethyl)-5,6-dihydro-[1,2,4]triazolo[4,3-a]pyrazin-7(8H)-yl)pyridin-3-yl)pyrrolidin-1-yl)isoquinolin-1-amine]
IC50 (KLK1): > 40 µM
IC50 (Human Factor XIIa): 3 to 10 µM
IC50 (FXa): > 40 µM

CC(C)(O)c1cn(-c2ccc(CNc3cccc4c(N)nccc34)cn2)nn1 [Example 1291, 2-(1-(5-(((1-aminoisoquinolin-5-yl)amino)methyl)pyridin-2-yl)-1H-1,2,3-triazol-4-yl)propan-2-ol]
IC50 (KLK1): 10 to 40 µM
IC50 (Human Factor XIIa): 3 to 10 µM
IC50 (FXa): > 40 µM

CC(C)Oc1cc(NCc2ccc(N3CCn4c(nnc4C(F)(F)F)C3)nc2)ccn1 [Example 1290, 2-isopropoxy-N-((6-(3-(trifluoromethyl)-5,6-dihydro-[1,2,4]triazolo[4,3-a]pyrazin-7(8H)-yl)pyridin-3-yl)methyl)pyridin-4-amine]
IC50 (KLK1): > 40 µM
IC50 (FXa): > 40 µM

CC1c2nnc(C(F)(F)F)n2CCN1c1ccc(CNc2cccc3c(N)nccc23)cn1 (centres unmarked) [Example 1285, N5-((6-(8-methyl-3-(trifluoromethyl)-5,6-dihydro-[1,2,4]triazolo[4,3-a]pyrazin-7(8H)-yl)pyridin-3-yl)methyl)isoquinoline-1,5-diamine]
IC50 (KLK1): 3 to 10 µM
IC50 (Human Factor XIIa): 0.3 to 1 µM
IC50 (FXa): > 40 µM

Nc1nccc2c(N3CCCC3c3ccc(N4CCn5c(nnc5C(F)(F)F)C4)nc3)cccc12 (racemic) [Example 10002, 5-(2-(6-(3-(Trifluoromethyl)-5,6-dihydro-[1,2,4]triazolo[4,3-a]pyrazin-7(8H)-yl)pyridin-3-yl)pyrrolidin-1-yl)isoquinolin-1-amine]
IC50 (KLK1): 10 to 40 µM
IC50 (Human Factor XIIa): 1 to 3 µM
IC50 (FXa): > 40 µM

N#Cc1cc(NCc2ccc(N3CCn4c(nnc4C(F)(F)F)C3)nc2)c2cc(Cl)[nH]c2n1 [Example 1292]
IC50 (KLK1): > 40 µM
Human FXIIa IC50 (nM): test compounds that did not achieve 50% inhibition (Human Factor XIIa; class scale H1-H3 for compounds that did not achieve 50% inhibition): H1 (>20% inhibition @ 40 μM)
IC50 (FXa): > 40 µM

Cn1ncc2c1CCN(c1ccc(CNc3cccc4c(N)nccc34)cn1)C2 [Example 1286, N5-((6-(1-methyl-1,4,6,7-tetrahydro-5H-pyrazolo[4,3-c]pyridin-5-yl)pyridin-3-yl)methyl)isoquinoline-1,5-diamine]
IC50 (KLK1): 1 to 3 µM
IC50 (Human Factor XIIa): 0.3 to 1 µM
IC50 (FXa): > 40 µM

Nc1nccc2c(N3CCCC3c3ccc(N4CCn5c(nnc5C(F)(F)F)C4)nc3)cccc12 (single isomer, unassigned) [Example 10004, (R*)-5-(2-(6-(3-(trifluoromethyl)-5,6-dihydro-[1,2,4]triazolo[4,3-a]pyrazin-7(8H)-yl)pyridin-3-yl)pyrrolidin-1-yl)isoquinolin-1-amine]
IC50 (KLK1): 10 to 40 µM
IC50 (Human Factor XIIa): 0.3 to 1 µM
IC50 (FXa): > 40 µM
